Test results taken from PubChem BioAssay (NCI).
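96-well plates; 48 h exposure; 5 concentrations. Endpoints by linear interpolation between flanking doses. Not reached: highest tested concentration assigned. TGI: total growth inhibition.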

How the values were obtained:
Test in all cases: NCI tumour cell line growth inhibition, 48 h
OVCAR-5 ovarian = test system: OVCAR-5 ovarian
IGROV1 ovarian = test system: IGROV1 ovarian
MALME-3M melanoma = test system: MALME-3M melanoma
HCT-116 colon = test system: HCT-116 colon
COLO 205 colon = test system: COLO 205 colon
UO-31 renal = test system: UO-31 renal
HOP-92 NSCLC = test system: HOP-92 NSCLC
UACC-257 melanoma = test system: UACC-257 melanoma
786-0 renal = test system: 786-0 renal
SF-268 CNS = test system: SF-268 CNS

Row | SMILES | TGI (OVCAR-5 ovarian) [µM] | TGI (IGROV1 ovarian) [µM] | TGI (MALME-3M melanoma) [µM] | TGI (HCT-116 colon) [µM] | TGI (COLO 205 colon) [µM] | TGI (UO-31 renal) [µM] | TGI (HOP-92 NSCLC) [µM] | TGI (UACC-257 melanoma) [µM] | TGI (786-0 renal) [µM] | TGI (SF-268 CNS) [µM]
1 | C[C@H]1S[C@@H](c2ccc(Cl)cc2Cl)N(NC(=O)c2ccncc2)C1=O | > 100 | > 100 | > 100 | > 100 | > 100 | > 100 | > 100 |  |  | 
2 | CCOP(=O)(/C=C/n1cc(C)c(=O)[nH]c1=O)OCC | > 100 | > 100 |  | > 100 | > 100 |  |  | > 100 | > 100 | > 100
3 | CC(C)(C)C(=O)Nc1c(C=O)ccc2[nH]cnc12 | > 100 | > 100 |  | > 100 | > 100 | > 100 | > 100 | > 100 | > 100 | > 100
4 | COc1nc(Cl)nc(N[C@H](C)c2c3ccccc3cc3ccccc23)n1 | 31.1 | 20.5 |  | 24.8 | 28.1 | 31.8 | 46.4 | 30.2 |  | 39.7
5 | Cc1cn(CCCCCCOC(=O)NC(CCCNC(N)=O)C(=O)O)c(=O)[nH]c1=O (stereo unspecified) | > 100 | > 100 |  | > 100 | > 100 | > 100 | > 100 | > 100 | > 100 | > 100
6 | CC1OC(OC2C(O[C@H]3CC[C@@]4(C)C(=CC[C@H]5[C@@H]6C[C@@H]7O[C@]8(CC[C@@H](C)CO8)[C@@H](C)[C@@H]7[C@@]6(C)CC[C@@H]54)C3)OC(CO)C(O)C2OC2OC(CO)C(O)C(O)C2O)C(O)C(O)C1O (stereo partly specified) | > 20.6 | 3.3 | 3.26 |  | 3.41 | 3.5 | 3.68 | 3.65 | 2.97 | 3.7
7 | Cc1nc(NC(C)(CO)CO)nc(N/N=C/c2ccc(Cl)cc2)c1C(=O)Nc1ccc(Cl)cc1 | > 100 | > 100 | > 100 | > 100 | > 100 | > 100 |  | > 100 | > 100 | > 100
8 | CC(C)CCCC(C)[C@H]1CCC(C2C[C@@H](O)[C@@H]3CC(O)[C@@H](O)C[C@]3(CO)C2=O)[C@]1(C)CCO (stereo partly specified) | 55.8 | 42.4 | 44.8 | 38.2 | 35 | 49.8 |  | 46.5 |  | 54.1
9 | C=C(C)C1CC(=O)C(C)=C(O)C1 (stereo unspecified) | > 100 | > 100 | > 100 | > 100 | > 100 | > 100 |  | > 100 | > 100 | > 100
10 | COC(=O)c1c2c(cc3c1CC1(Cc4cc5c(c(C=O)c4C1)CCC5)C3)CCC2 (stereo unspecified) | > 100 | > 100 | 61.7 | 60 |  | 71.8 | 60.7 | 71.3 | > 100 | > 100
11 | CN(CCCCCl)P(=O)(OCc1ccc([N+](=O)[O-])o1)OCC1OC(n2ccc(N)nc2=O)C(O)C1O (stereo unspecified) | > 100 | 16.3 | 8.36 | 25.9 | 2.69 | > 100 |  | 30.2 | > 100 | > 100
12 | N#Cc1c(-c2ccc([N+](=O)[O-])cc2)c(C#N)c(=O)n(NS(=O)(=O)c2ccccc2)c1S | > 100 | 48.3 | > 100 | 39.8 | > 100 |  | > 100 | > 100 | > 100 | > 100
13 | FC1=C2C3CCC(C3)C2C1(F)F (stereo unspecified) | > 100 | > 100 | > 100 | > 100 | > 100 | > 100 |  | > 100 | > 100 | > 100
14 | O=C(O)CSC(CC(=O)c1ccc(Cl)cc1)c1ccc(Cl)cc1 (stereo unspecified) | > 100 | 54.5 |  | 59.7 | > 100 | > 100 | 73.2 | 53.3 | > 100 | 79
15 | COC(=O)C1=C(CCCCO[Si](C)(C)C(C)(C)C)NC(=O)N2[C@H](CCOCc3ccccc3)CC[C@@H]12 | > 100 |  | > 100 | > 100 | > 100 | > 100 | > 100 | > 100 | > 100 | > 100
16 | CC(Nc1ccc(Cl)cc1)c1ccncc1 (stereo unspecified) | > 100 | > 100 | > 100 | > 100 | > 100 | > 100 |  | > 100 | > 100 | > 100
17 | COc1cc2c[n+]3c4c(c2c(OC)c1OC)CCCC4CC3 (stereo unspecified) | > 100 | > 100 | 46.9 | > 100 | > 100 | > 100 | > 100 | > 100 | > 100 | 
18 | CC(=O)n1[nH]c(=O)n(-c2ccc(Cl)cc2)c1=O | > 100 | > 100 | > 100 | > 100 | > 100 | > 100 |  | > 100 | > 100 | > 100
19 | CCc1nc(N)c2nc(-c3cccs3)oc2n1 | > 100 | > 100 |  | > 100 | > 100 | > 100 | > 100 | > 100 | > 100 | > 100
20 | Cn1c(=O)c2c(nc3[nH]c(=O)c(Br)cn32)n(C)c1=O | > 100 | > 100 |  | > 100 | > 100 | > 100 | > 100 | > 100 | > 100 | > 100
21 | C=C1CCC[C@@H](C)C(O)[C@@H]2OC(=O)C(=C)[C@@H]2C[C@@H](OC(C)=O)[C@@]2(C)CC[C@@H]1O2 (stereo partly specified) | 16.1 | 15.4 |  | 13.8 | 13.4 | 15.3 | 15 | 15.2 | 20.1 | 15.7
22 | N#Cc1ccccc1NC(=O)C(=O)C(C(=O)c1ccccc1F)C1OC(=O)c2ccccc21 (stereo unspecified) | > 100 | > 100 |  | > 100 | > 100 | > 100 | > 100 | > 100 |  | > 100
